System: RMA
Settings: not given

Point of comparison: `C[C@H](O)c1ccccc1` [(S)-1-Phenylethanol], activity 307%. Against it:
- C[C@@H](O)CCO [(R)-1,3-Butandiol] — lower, 1.3%
- CC(C)O [2-Propanol] — lower, 66%
- C[C@H](O)CO [(S)-1,2-propandiol] — lower, 0.7%
- CC(O)CC(C)O (stereo not drawn) [2,4-Pentandiol] — lower, 34%
- OC1CCCCC1 [Cyclohexanol] — lower, 30%
- CCC(O)C(=O)O (stereo not drawn) [2-Hydroxybutyric acid] — lower, 4.9%
- C[C@H](O)CCO [(S)-1,3-Butandiol] — lower, 9.5%
- C[C@@H](O)C[C@@H](C)O [(2R,4R)-2,4-Pentandiol] — lower, 0.5%
- C[C@@H](O)CO [(R)-1,2-Propandiol] — lower, 0.7%
- CCCCCCC(C)O (stereo not drawn) [2-Octanol] — lower, 134%
- CO [Methanol] — lower, 0.6%
- C[C@H](O)CN [(S)-1-Amino-2-propanol] — lower, 2%
- CCCC(C)O (stereo not drawn) [2-Pentanol] — lower, 183%
- CCC(O)CC [3-Pentanol] — lower, 40%

System: enzyme derived from Candida parapsilosis IFO 1396 strain
Settings: cited from earlier work

In the case of `O[C@H](CS)[C@H](O)CS` (racemic) [Dithiothreitol], the “inhibition of enzyme activity (in words)” value is given as “inhibited”.
For `OCCS` [β-Mercaptoethanol], the “inhibition of enzyme activity (in words)” value is given as “inhibited”.

System: RMA
Settings: carbonyl compound 1.5 mM, NADH 0.25 mM, pH 6.5, 30° C.; acetophenone = 100%

Point of comparison: `CC(=O)CC(N)=O` [Acetoacetamide], “Relative activity (%) (reducing activity)” value 10%. Against it:
- CCOC(=O)C(C)=O [Ethyl pyruvate] — higher, 87%
- COc1ccccc1NC(=O)CC(C)=O [o-Acetoacetanisidide] — higher, 35%
- CCCCC(C)=O [2-Hexanone] — higher, 87%
- CC(=O)c1cccnc1 [3-Acetylpyridine] — higher, 19%
- CC(=O)C(C)C [Methyl iso-propyl ketone] — lower, 4%
- CC(=O)c1cccc(O)c1 [m-Hydroxyacetophenone] — higher, 12%
- CC(=O)c1ccc(C)cc1 [p-Methylacetophenone] — higher, 91%
- CC(=O)CC(=O)OCc1ccccc1 [Benzyl acetoacetate] — higher, 115%
- CC(=O)c1ccncc1 [4-Acetylpyridine] — higher, 83%
- CC(=O)c1ccccc1O [o-Hydroxyacetophenone] — lower, 9%
- CCC=O [Propionaldehyde] — higher, 39%
- CCCCCCC(C)=O [2-Octanone] — higher, 95%
- CCCCCCCCOC(=O)CC(=O)CCl [n-Octyl 4-chloroacetoacetate] — higher, 24%
- COC(=O)C(C)=O [Methyl pyruvate] — higher, 71%
- CCCC(=O)CC(=O)OCC [Ethyl 3-oxohexanate] — lower, 2%
- CC(=O)C(C)=O [diacethyl] — higher, 24%
- CC(=O)CC(=O)Nc1ccc(C)cc1 [N-Acetoacetyl-p-toluidine] — lower, 2%
- O=CCCCC=O [Glutaraldehyde] — lower, 9%
- CC(=O)c1cccc([N+](=O)[O-])c1 [m-Nitroacetophenone] — higher, 89%
- CCCCCCCCC(=O)C(=O)OC [Methyl 2-oxodecanate] — lower, 2%
- O=Cc1ccccc1[N+](=O)[O-] [o-Nitrobenzeldehyde] — higher, 29%
- CC(=O)C(Cl)C(C)=O [3-Chloro-2,4-pentadione] — higher, 43%
- CCCCCC=O [n-Hexylaldehyde] — higher, 117%
- CC(C)=O [Acetone] — higher, 28%
- CC(=O)c1cc2ccoc2cn1 [5-Acetylfuro[2.3-c]pyridine] — higher, 63%
- CCCC(C)=O [2-Pentanone] — higher, 141%
- CCOC(=O)c1ccc(C(C)=O)cc1 [Ethyl 4-acetylbenzoate] — higher, 70%
- CC(=O)CC(=O)Nc1ccccc1 [Acetoacetoanilide] — lower, 1%
- CC(C=O)c1ccccc1 (stereo not drawn) [2-Phenypropionaldehyde] — higher, 37%
- CC(=O)c1ccccn1 [2-Acetylpyridine] — higher, 63%
- CC(=O)CC(=O)OC(C)(C)C [tert-Butylacetoacetate] — higher, 88%
- CCC(C)=O [2-Butanone] — higher, 54%
- CCOC(=O)CC(=O)CCl [Ethyl 4-chloroacetoacetate] — higher, 52%
- CCCC=O [n-Butyraldehyde] — higher, 117%
- COC(=O)CC(C)=O [Methyl acetoacetate] — higher, 66%
- CCOC(=O)CC(=O)CN=[N+]=[N-] [Ethyl 4-azideacetoacetate] — higher, 21%
- CCCCCC(=O)CC [3-Octanone] — lower, 3%
- O=Cc1cccc([N+](=O)[O-])c1 [m-Nitrobenzaldehyde] — higher, 28%
- CC(=O)c1ccccc1Cl [o-Chloroacetophenone] — lower, 2%
- O=CCCc1ccccc1 [3-Phenypropionaldehyde] — higher, 112%
- CCOC(=O)CC(=O)COCc1ccccc1 [Ethyl 4-benzyloxyacetoacetate] — the same, 10%
- O=Cc1ccc([N+](=O)[O-])cc1 [p-Nitrobenzaldehyde] — higher, 27%
- O=Cc1ccccc1 [Benzaldehyde] — higher, 29%
- CC(=O)c1ccco1 [2-Acetyrfuran] — lower, 8%
- CC(=O)CC(C)C [4-Methyl-2-pentanone] — higher, 70%
- COc1ccccc1C(C)=O [o-Methoxyacetophenone] — the same, 10%
- O=Cc1ccccn1 [2-Pyridinecarbaldehyde] — higher, 11%
- CCOC(=O)C(Cl)C(C)=O (stereo not drawn) [Ethyl 2-chloroacetoacetate] — higher, 26%
- CC(=O)CCc1ccccc1 [Benzylacetone] — higher, 33%
- CCCCCC(C)=O [2-Heptanone] — higher, 82%
- CC(=O)c1ccccc1 [Acetophenone] — higher, 100%
- O=C1CCSC1 [Tetrahydrothiophen-3-one] — lower, 4%
- CC(=O)c1cccc(Cl)c1 [m-Chloroacetophenone] — higher, 130%
- COc1cccc(C(C)=O)c1 [m-Methoxyacetophenone] — higher, 111%
- CC(=O)CC(C)=O [Acethylacetone] — higher, 19%
- O=C1CCCC1 [Cyclopentanone] — the same, 10%
- CC(=O)c1cnccn1 [Acetypyrazine] — higher, 76%
- COC(=O)CC(=O)CCl [Methyl 4-chloroacetoacetate] — higher, 35%
- CC(=O)c1ccc(F)cc1 [p-Fluoroacetophenone] — higher, 110%
- CC(=O)CC(=O)Nc1ccc(Cl)cc1 [4′-Chroloacetoacetanilide] — lower, 4%
- CC(=O)CC(=O)Nc1cc(Cl)ccc1Cl [2′,5′-Dichloro acetoacetanilide] — higher, 34%
- CCOC(=O)CC(C)=O [Ethyl 3-oxobutanoate] — higher, 93%
- CC(=O)c1ccc(Cl)cc1 [p-Chloroacetohenone] — higher, 130%
- O=Cc1ccncc1 [4-Pyridinecarbaldehyde] — lower, 5%

Same assay, conditions: pH 6.5

For `O=C(CCl)c1cccc(Cl)c1` [2-Chloro-1-(3′-cholophenyl)ethanone], the “Relative activity (%) (reducing activity)” value was 20%.

System: RMA
Format: biochemical, Candida maltosa IFO 1977 strain
Settings: inhibitor 1 mM, 30° C. for 30 minutes; untreated RMA = 100%
Protocol: In 1 mM concentration solution or mixture of various compounds, a polypeptide is treated at 30° C. for 30 minutes. […] Concentrations of agents at the time of treatment are illustrated in Table 6.

Point of comparison: `O=S(=O)([O-])[O-].[Zn+2]` [ZnSO4, zinc sulfate], “Relative activity (%) of RMA after treatment with inhibitor” value (from here on “Relative activity (%) … with inhibitor”) 23.1%. Against it:
- CCN1C(=O)C=CC1=O [N-Ethylmaleimide] — higher, 94.7%
- O=S(=O)([O-])[O-].[Cu+2] [CuSO4, copper sulfate] — higher, 28.5%
- O[C@H](CS)[C@H](O)CS (racemic) [Dithiothreitol] — higher, 92.2%
- O=S(=O)(F)Cc1ccccc1 [Phenylmethanesulfonyl fluoride] — higher, 96.0%
- [Cl][Hg][Cl] [HgCl2, mercury chloride] — lower, 0.0%
- O=C(O)c1ccc(O)cc1 [p-Hydroxybenzoic acid] — higher, 91.5%
- OCCS [β-Mercaptoethanol] — higher, 95.4%
- c1cnc2c(c1)ccc1cccnc12 [o-Phenanthroline] — lower, 0.0%

Same assay, conditions: treatment at 30° C. for 30 minutes, concentrations of Table 6

In the case of `O=S(=O)([O-])[O-].[Cu+2]` [CuSO4, copper sulfate], the “inhibition of RMA (in words)” value is reported as “inhibited”.
With `O[C@H](CS)[C@H](O)CS` (racemic) [Dithiothreitol] the “inhibition of RMA (in words)” value was “did not”.
For `O=S(=O)([O-])[O-].[Zn+2]` [ZnSO4, zinc sulfate], the “inhibition of RMA (in words)” value was “inhibited”.
In the case of `[Cl][Hg][Cl]` [HgCl2, mercury chloride], the “inhibition of RMA (in words)” value is reported as “inhibited”.
For `OCCS` [β-Mercaptoethanol], the “inhibition of RMA (in words)” value was “did not”.
With `c1cnc2c(c1)ccc1cccnc12` [o-Phenanthroline] the “inhibition of RMA (in words)” value was “inhibited”.

System: RMA
Format: biochemical, Candida maltosa IFO 1977 strain
Settings: not given
Remark: another data set of the same source

With `O=C(O)CI` [Iodoacetic acid] the “Relative activity (%) … with inhibitor” value was 78.9%.

Same assay, conditions: inhibitor 0.01 mM, 30° C. for 30 minutes; untreated RMA = 100%

With `NO` [NH2OH] the “Relative activity (%) … with inhibitor” value was 96.1%.

Same assay, conditions: inhibitor 0.05 mM, 30° C. for 30 minutes; untreated RMA = 100%

In the case of `O=C(O)c1cc[c]([Hg][Cl])cc1` [p-Chloromercuribenzoate], the “Relative activity (%) … with inhibitor” value is reported as 96.3%.

Same assay, conditions: inhibitor 50 mM, 30° C. for 30 minutes; untreated RMA = 100%

With `C/C=C/C(=O)O` [Crotonic acid] the “Relative activity (%) … with inhibitor” value was 10.4%.

Source: patent US8129163B2, “Gene suitable for alcohol dehydrogenase, vector and transformant” (Kaneka Corporation, priority 2006, dated 2012)
